Measurements as given in patent US20150284362A1, “CARBAZOLE-CONTAINING AMIDES, CARBAMATES, AND UREAS AS CRYPTOCHROME MODULATORS” (ReSet Therapeutics, Inc., priority 2014, published 2015).

Tests used:
Dbp mRNA in whole blood = Dbp mRNA in whole blood of db/db mice after three daily doses; assay type: in vivo, mouse; details: 100 mg/kg PO once daily for three days at ZT0, blood at ZT7.5
Experimental: For whole blood RNA studies, male db/db mice (9 weeks of age, The Jackson Laboratory, Bar Harbor, Me.) were used for the experiment with n=8 mice for each experimental group. […] On the final day at ZT7.5 (2:30 pm), animals were euthanized using CO2 asphyxiation, and the blood collected from the heart via cardiac puncture. The blood was placed in RNALater solution to 1.5 ml total volume. Total RNA was prepared using an Ambion Mouse RiboPure Blood RNA Isolation Kit AM1951 as follows. Samples were centrifuged for 3 minutes, discarding the supernatant. Two ml of lysis solution was added and vortexed, transferred to a 15 ml tube followed by the addition of microliters 3M Sodium Acetate. […]
RediPlate 96 RiboGreen RNA Quantification Kit (Invitrogen) RediPlate standard curve was prepared by transferring 20 μl reconstituted RNA standard to a RediPlate well reconstituted in 180 μl RediPlate TE buffer. […] After transferring 5 μl to RediPlate well reconstituted in 195 μl TE buffer and incubating 10 min. at RT, Fluorescence Intensity of wells with standards and samples were read in a Tecan M200 with Excitation set at 480 nm and Emission set at 520 nm with the gain set to ˜70%. […] A standard curve was generated in GraphPad Prism and sample readings (unknowns) are interpolated via linear regression analysis, and the RNA sample concentrations were calculated. […]

C57/Bl6J DIO mice = assay: Increasing dosages of Compound 72 over 7 days in diet-induced obesity (DIO) mouse model; assay type: in vivo; details: 10, 30, 100 mg/kg PO QD 7 days
Text: Male C57/Bl6J DIO mice were obtained from The Jackson Laboratory (Sacramento, Calif.). […] Animals were accustomed to these conditions for at least 2 weeks before experimentation and used at approximately 24 weeks of age.
Significance was accepted when p<0.05.
Male C57/Bl6J DIO mice were obtained from The Jackson Laboratory (Sacramento, Calif.). […] Animals were accustomed to these conditions for at least 2 weeks before experimentation and used at approximately 26 weeks of age.

Q: With `O=C1NCCN1CC(O)Cn1c2ccc(F)cc2c2cc(F)ccc21` (centres unmarked) [Compound 72, 1-(3-(3,6-difluoro-9H-carbazol-9-yl)-2-hydroxypropyl)imidazolidin-2-one] as the compound, how does the “Dbp gene expression in whole blood” value (Dbp mRNA in whole blood) read?
A: statistically significant suppression

Q: And the “OGTT glucose excursion following a glucose load” value (C57/Bl6J DIO mice)?
A: reduction in glucose excursion
